Like-named read-outs stand apart in the source and are kept apart here.
How the values were obtained:
[1] = set-up: method as in PMID 23980546; settings: urinary excretion, China, cited from earlier work
[2] = Apparent elimination half-life (HLapp) and phlebotomy efficiency coefficient in treated family members; assay type: in vivo, human; settings: family members with regular phlebotomy, except parent
From the text: To evaluate the effect of phlebotomy, versus the expected rate of intrinsic elimination, we graphically and statistically compared the observed decreasing trends in each family member (fitted to a simple exponential decay model) with reference population elimination kinetics. Specifically, for the reference population of occupationally exposed retirees, we considered: i) the 95% confidence interval of the geometric mean elimination rate for each PFAA, and ii) the fastest individual rate of elimination rate among the reference population. For comparative purposes, the concentration of each PFAA in serum on the first day of the intervention was taken as time zero, and the models were forced through this starting point.
One metric that was calculated to compare the efficiency of the phlebotomy for removal of different PFAAs in each family member was termed the phlebotomy efficiency coefficient (EC). This was based on the subtractive difference between HLapp (yrs) in each treated family member and the geometric mean HLin (yrs) of the reference population according to Equation 1 . [drawing 1] (1)

[3] = set-up: method as in PMID 17805419; settings: cited from earlier work
[4] = Serum PFAA concentrations in family members during intermittent phlebotomy (HPLC-MS/MS); assay type: in vivo, human; settings: for Serum concentration before treatment: before phlebotomy
From the text: After receiving informed consent, intermittent phlebotomy was undertaken at an overall rate (Table 2) that was equal to or less than the maximum rate of what is done for routine blood donations at the Canadian Blood Services: ∼500 ccs of whole blood every 56 days. Frequency and timing of blood removal was not consistent between family members because of their personal availability, success at each time of venesection, and compliance of each participant. […] Mineral supplementation was discussed and was taken by each participant.
All serum samples were submitted to ALS Laboratories (Edmonton, AB) for quantitative analysis of PFAAs (see Supporting Information, S1 Table). Samples were extracted by solid phase extraction and concentrations of PFHxS, PFOS, and PFOA were determined using high performance liquid chromatography/tandem mass spectrometry. Formic acid (0.1 M) along with a mixture of isotopically labeled PFAAs (Wellington Laboratories, Guelph, Ontario) were added to 1.0 mL of serum. The mixture was vortexed, sonicated, and subjected to solid phase extraction. The extract was concentrated to 100 uL and an instrument performance internal standard was added along with 200 uL of 90% 20 mM aqueous acetic acid/10% methanol. Procedural blanks were run with each set of samples, and method limits of quantification (LOQ) were 0.5 ng/mL for each analyte. For the few PFAA levels that fell below this LOQ (shown as hollow circles in Figs. 1–3), LOQ/√2 (i.e. 0.35 ng/mL) was substituted for purposes of data analysis. PFHxS, PFOS, and PFOA levels in all participating family members were >LOQ throughout the intervention except for 3 PFOS measurements out of 16 total measurements in the 3rd child and one PFOA measurement out of 9 total measurements in the […]. Written informed consent was given by participants (or parents in the case of children) for their clinical records to be used in this study.

[5] = set-up: method as in earlier work; settings: cited from earlier work

SMILES: O=C(O)C(F)(F)C(F)(F)C(F)(F)C(F)(F)C(F)(F)C(F)(F)C(F)(F)F [PFOA, perfluorooctanoic acid]
- HLapp ([1]; males and post-menopausal females): 2.6 years
- HLapp ([1]; reproductive-aged females): 2.1 years
- HLapp compared with geometric mean HLin of reference population [2]: significantly shorter
- HLin of fastest eliminator in the reference population ([3]; reference population of occupationally exposed retirees (26 individuals)): 1.5 yrs
- 95% confidence interval of the geometric mean HLin ([3]; reference population of occupationally exposed retirees): 3.0–4.1 yrs
- HLin, 95% confidence interval ([3]; serum, retirees >55 yrs, previously occupationally exposed): 3.1–4.4 yrs
- Serum concentration before treatment ([4]; 1st Child): 4.7 ng/mL
- Serum concentration ([4]; 1st Child, sampling date 2009.10.12): 3.5 ng/mL
- Serum concentration ([4]; 1st Child, sampling date 2009.12.24): 4.4 ng/mL
- Serum concentration ([4]; 1st Child, sampling date 2009.6.9): 4.7 ng/mL
- Serum concentration ([4]; 1st Child, sampling date 2009.9.9): 3.9 ng/mL
- Serum concentration ([4]; 1st Child, sampling date 2010.10.14): 2.8 ng/mL
- Serum concentration ([4]; 1st Child, sampling date 2010.1.17): 4.0 ng/mL
- Serum concentration ([4]; 1st Child, sampling date 2010.2.11): 2.0 ng/mL
- Serum concentration ([4]; 1st Child, sampling date 2010.4.14): 3.8 ng/mL
- Serum concentration ([4]; 1st Child, sampling date 2011.12.5): 1.3 ng/mL
- Serum concentration ([4]; 1st Child, sampling date 2011.5.17, LOD=0.5ng/mL): 1.8 ng/mL
- Serum concentration ([4]; 1st Child, sampling date 2011.8.12, LOD=0.5ng/mL): 2.7 ng/mL
- Serum concentration ([4]; 1st Child, sampling date 2012.12.28, LOD=0.5ng/mL): 1.5 ng/mL
- Serum concentration ([4]; 1st Child, sampling date 2012.4.24): 2.3 ng/mL
- Serum concentration ([4]; 1st Child, sampling date 2012.8.21): 1.7 ng/mL
- Serum concentration ([4]; 1st Child, sampling date 2013.3.30): 1.5 ng/mL
- Serum concentration ([4]; 1st Child, sampling date 2013.7.30): 1.2 ng/mL
- Serum concentration before treatment ([4]; 2nd Child): 8.7 ng/mL
- Serum concentration ([4]; 2nd Child, sampling date 2009.10.24): 5.0 ng/mL
- Serum concentration ([4]; 2nd Child, sampling date 2009.6.6): 8.7 ng/mL
- Serum concentration ([4]; 2nd Child, sampling date 2009.7.2): 7.1 ng/mL
- Serum concentration ([4]; 2nd Child, sampling date 2009.7.30): 9.2 ng/mL
- Serum concentration ([4]; 2nd Child, sampling date 2009.8.24): 7.4 ng/mL
- Serum concentration ([4]; 2nd Child, sampling date 2009.9.27): 4.5 ng/mL
- Serum concentration ([4]; 2nd Child, sampling date 2010.1.3): 4.3 ng/mL
- Serum concentration ([4]; 2nd Child, sampling date 2010.2.15): 4.9 ng/mL
- Serum concentration ([4]; 2nd Child, sampling date 2011.10.2): 3.7 ng/mL
- Serum concentration ([4]; 2nd Child, sampling date 2011.12.24): 3.8 ng/mL
- Serum concentration ([4]; 2nd Child, sampling date 2011.4.27): 3.7 ng/mL
- Serum concentration ([4]; 2nd Child, sampling date 2011.8.14): 3.6 ng/mL
- Serum concentration ([4]; 2nd Child, sampling date 2012.12.24): 3.0 ng/mL
- Serum concentration ([4]; 2nd Child, sampling date 2012.4.6): 3.0 ng/mL
- Serum concentration ([4]; 2nd Child, sampling date 2013.5.11.): 2.1 ng/mL
- Serum concentration ([4]; 2nd Child, sampling date 2013.7.15): 1.9 ng/mL
- Serum concentration before treatment ([4]; 3rd Child): 8.2 ng/mL
- Serum concentration ([4]; 3rd Child, sampling date 2010.3.12): 6.6 ng/mL
- Serum concentration ([4]; 3rd Child, sampling date 2010.5.23): 5.3 ng/mL
- Serum concentration ([4]; 3rd Child, sampling date 2011.1.6): 4.2 ng/mL
- Serum concentration ([4]; 3rd Child, sampling date 2011.11.26): 2.2 ng/mL
- Serum concentration ([4]; 3rd Child, sampling date 2011.2.24): 3.3 ng/mL
- Serum concentration ([4]; 3rd Child, sampling date 2011.4.30): 3.0 ng/mL
- Serum concentration ([4]; 3rd Child, sampling date 2011.6.13): 3.2 ng/mL
- Serum concentration ([4]; 3rd Child, sampling date 2011.9.27): 3.0 ng/mL
- Serum concentration ([4]; 3rd Child, sampling date 2012.10.16): 2.1 ng/mL
- Serum concentration ([4]; 3rd Child, sampling date 2012.1.8): 2.9 ng/mL
- Serum concentration ([4]; 3rd Child, sampling date 2012.12.9): 2.5 ng/mL
- Serum concentration ([4]; 3rd Child, sampling date 2012.3.4): 3.2 ng/mL
- Serum concentration ([4]; 3rd Child, sampling date 2012.4.28): 3.2 ng/mL
- Serum concentration ([4]; 3rd Child, sampling date 2013.2.5): 2.2 ng/mL
- Serum concentration ([4]; 3rd Child, sampling date 2013.3.30): 2.2 ng/mL
- Serum concentration before treatment ([4]; 4th Child): 6.8 ng/mL
- Serum concentration before treatment ([4]; Average of 6 family members): 5.7 ng/mL
- Serum concentration before treatment ([4]; Parent one): 3.0 ng/mL
- Serum concentration ([4]; Parent one, sampling date 2009.10.11): 1.6 ng/mL
- Serum concentration ([4]; Parent one, sampling date 2009.10.12): 2.1 ng/mL
- Serum concentration ([4]; Parent one, sampling date 2009.11.12): 2.0 ng/mL
- Serum concentration ([4]; Parent one, sampling date 2009.12.14): 2.1 ng/mL
- Serum concentration ([4]; Parent one, sampling date 2009.2.2): 3.0 ng/mL
- Serum concentration ([4]; Parent one, sampling date 2009.5.18): 2.5 ng/mL
- Serum concentration ([4]; Parent one, sampling date 2009.6.1): 3.1 ng/mL
- Serum concentration ([4]; Parent one, sampling date 2009.7.4): 2.6 ng/mL
- Serum concentration ([4]; Parent one, sampling date 2009.9.1): 2.3 ng/mL
- Serum concentration ([4]; Parent one, sampling date 2010.10.10): 2.2 ng/mL
- Serum concentration ([4]; Parent one, sampling date 2010.1.17): 2.0 ng/mL
- Serum concentration ([4]; Parent one, sampling date 2010.3.13): 2.6 ng/mL
- Serum concentration ([4]; Parent one, sampling date 2011.1.6): 1.6 ng/mL
- Serum concentration ([4]; Parent one, sampling date 2011.11.26): 0.9 ng/mL
- Serum concentration ([4]; Parent one, sampling date 2011.2.24): 1.7 ng/mL
- Serum concentration ([4]; Parent one, sampling date 2011.4.30): 1.3 ng/mL
- Serum concentration ([4]; Parent one, sampling date 2011.6.22): 1.5 ng/mL
- Serum concentration ([4]; Parent one, sampling date 2011.8.4): 1.4 ng/mL
- Serum concentration ([4]; Parent one, sampling date 2011.9.27): 1.2 ng/mL
- Serum concentration ([4]; Parent one, sampling date 2012..12.28): 1.0 ng/mL
- Serum concentration ([4]; Parent one, sampling date 2012.1.14): 1.6 ng/mL
- Serum concentration ([4]; Parent one, sampling date 2012.11.1): 1.2 ng/mL
- Serum concentration ([4]; Parent one, sampling date 2012.3.4): 1.3 ng/mL
- Serum concentration ([4]; Parent one, sampling date 2012.4.29): 1.2 ng/mL
- Serum concentration ([4]; Parent one, sampling date 2012.7.8): 1.0 ng/mL
- Serum concentration ([4]; Parent one, sampling date 2012.8.21): 1.2 ng/mL
- Serum concentration ([4]; Parent one, sampling date 2013.10.27): 1.2 ng/mL
- Serum concentration ([4]; Parent one, sampling date 2013.2.18): 1.2 ng/mL
- Serum concentration ([4]; Parent one, sampling date 2013.3.30): 1.1 ng/mL
- Serum concentration ([4]; Parent one, sampling date 2013.5.11): 1.0 ng/mL
- Serum concentration ([4]; Parent one, sampling date 2013.7.15): 1.0 ng/mL
- Serum concentration ([4]; Parent one, sampling date 2013.9.8): 0.9 ng/mL
- Serum concentration before treatment ([4]; Parent two): 2.5 ng/mL
- Serum concentration ([4]; Parent two, sampling date 2009.6.1): 2.5 ng/mL
- Serum concentration ([4]; Parent two, sampling date 2009.7.7): 1.8 ng/mL
- Serum concentration ([4]; Parent two, sampling date 2009.8.24): 1.6 ng/mL
- Serum concentration ([4]; Parent two, sampling date 2010.1.3): 1.3 ng/mL
- Serum concentration ([4]; Parent two, sampling date 2012.3.13): 1.3 ng/mL
- Serum concentration ([4]; Parent two, sampling date 2013.1.1): 1.0 ng/mL
- Serum concentration ([4]; Parent two, sampling date 2013.10.6): 0.9 ng/mL
- Serum concentration ([4]; Parent two, sampling date 2013.6.22): 1.1 ng/mL
- 95th percentile of serum concentration among Canadians ([5]; 2009–2011): 5 ng/mL
- median serum concentration among Canadians [5]: 2.7 ng/mL
